Key:
[1] = target: T1, human thyroid receptor beta ligand-binding domain (LBD) (Homo sapiens, UniProt P10828); test: TR-FRET thyroid receptor beta coactivator assay (THR biochemical assay, Assay 1); conditions: for EC50: THR-beta, TR-FRET coactivator assay, read-out: Activity category Assay 1 (EC50, THR-beta agonist); for Emax: Table 5, Assay 1, THRβ, read-out: Activity category Assay 1 THRβ (Emax)
T1 construct: purchased Invitrogen
T1 sequence (P10828 217-461 limits assumed): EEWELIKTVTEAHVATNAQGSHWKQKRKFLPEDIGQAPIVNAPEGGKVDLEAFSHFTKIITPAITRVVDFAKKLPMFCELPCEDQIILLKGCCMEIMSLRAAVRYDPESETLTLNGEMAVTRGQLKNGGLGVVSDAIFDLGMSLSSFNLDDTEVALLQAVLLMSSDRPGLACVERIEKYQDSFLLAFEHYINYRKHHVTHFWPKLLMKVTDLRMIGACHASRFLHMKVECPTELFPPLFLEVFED
Method in brief: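 Agonist-driven coactivator recruitment measured by TR-FRET: terbium anti-GST antibody (2 nM) bound to GST-LBD of TRβ or TRα (1 nM final, stated for β), with fluorescein SRC2-2 peptide at 200 nM. Compounds at 1% DMSO. Read after 1 h, room temperature, protected from light.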

[2] = tested on: CPT1A gene expression in Huh-7 cells; test: Huh-7 differential gene expression, CPT1A RT-qPCR (Assay 3); format: cell-based; conditions: Table 6, Huh-7 cells, CPT1A, 24 hr treatment; for EC50 / Emax: Homo sapiens, Huh-7, 24 h; for EC50: read-out: Activity category Assay 3 EC50; for Emax: read-out: Activity category Assay 3 Emax
Method in brief: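 Huh-7 cells in DMEM with 10% resin-stripped (TH-depleted) FBS were treated 24 hr with compounds at 0.1% DMSO, in biological duplicates. CPT1A mRNA was measured by TaqMan RT-qPCR against ACTB and TFG and quantified by 2-ΔΔCt. EC50 and Emax came from four-parameter logistic fits with no top constraint.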

Row | SMILES | EC50 [1] [nM] | Emax [1] [%] | EC50 [2] [nM] | Emax [2] [%] | Activity category Assay 3 Emax [2]
1 | CC(C)c1cc(=O)[nH]c2ccc(Oc3c(Cl)cc(-n4nc(N)c(=O)[nH]c4=O)cc3Cl)cc12 [Compound 146, 6-amino-2-[3,5-dichloro-4-[(4-isopropyl-2-oxo-1H-quinolin-6-yl)oxy]phenyl]-1,2,4-triazine-3,5-dione] | < 50 | < 50 | 100 to 1000 | > 75 | 
2 | Nc1nn(-c2cc(Cl)c(Oc3cc(-c4ccc5c(c4)CCCC5)c(=O)[nH]n3)c(Cl)c2)c(=O)[nH]c1=O [Compound 72, 6-Amino-2-(3,5-dichloro-4-((6-oxo-5-(5,6,7,8-tetrahydro-naphthalen-2-yl)-1,6-dihydro-pyridazin-3-yl)oxy)phenyl)-1,2,4-triazine-3,5(2H,4H)-dione] | 50 to 250 | < 50 | 100 to 1000 | > 75 | 
3 | CC(C)c1c[nH]c2ccc(Oc3c(Cl)cc(-n4nc(C#N)c(=O)[nH]c4=O)cc3Cl)nc12 [Compound 18] | < 50 | < 50 | > 100 | > 75 | 
4 | CC(C)c1c[nH]c2nnc(Oc3c(Cl)cc(-n4nc(C#N)c(=O)[nH]c4=O)cc3Cl)cc12 [Compound 52, 2-[3,5-dichloro-4-([5-isopropyl-7H-pyrrolo[2,3-c]pyridazin-3-yl]oxy)phenyl]-3,5-dioxo-4H-1,2,4-triazine-6-carbonitrile] | 50 to 250 | < 50 | > 100 | > 75 | 
5 | CC(C)c1cc(Oc2c(Cl)cc(-c3nn(C)c(=O)[nH]c3=O)cc2Cl)n[nH]c1=O [Compound 16, 6-[3,5-dichloro-4-[(5-isopropyl-6-oxo-1H-pyridazin-3-yl)oxy]phenyl]-2-methyl-4H-1,2,4-triazine-3,5-dione] | 50 to 250 | 50 to 75 | 100 to 1000 | < 50 | 
6 | Cc1cc(-n2nc(C#N)c(=O)[nH]c2=O)cc(C)c1Cc1ccc2c(c1)C1(CC1)C(=O)N2 [Compound 148, 2-(3,5-dimethyl-4-((2′-oxospiro[cyclopropane-1,3′-indolin]-5′-yl)methyl)phenyl)-3,5-dioxo-2,3,4,5-tetrahydro-1,2,4-triazine-6-carbonitrile] | < 50 | < 50 | 100 to 1000 | > 75 | 
7 | Nc1nn(-c2cc(Cl)c(Oc3cc(-c4ccc5ccccc5c4)c(=O)[nH]n3)c(Cl)c2)c(=O)[nH]c1=O [Compound 67, 6-amino-2-(3,5-dichloro-4-[[5-(naphthalen-2-yl)-6-oxo-1H-pyridazin-3-yl]oxy]phenyl)-4H-1,2,4-triazine-3,5-dione] | 50 to 250 | < 50 | > 100 | > 75 | 
8 | Cc1cc(-n2nc(N)c(=O)[nH]c2=O)cc(C)c1Cc1ccc(O)c(-c2ccccc2)n1 [Compound 43, 6-amino-2-[4-[(5-hydroxy-6-phenylpyridin-2-yl)-methyl]-3,5-dimethylphenyl]-4H-1,2,4-triazine-3,5-dione] | < 50 | > 75 | < 100 | > 75 | 
9 | C[C@H]1C[C@H](c2cc(Oc3c(Cl)cc(-n4nc(N)c(=O)[nH]c4=O)cc3Cl)n[nH]c2=O)C1 (single isomer, unassigned) [Compound 86-A, 6-Amino-2-(3,5-dichloro-4-((5-((1r,3r)-3-methylcyclobutyl)-6-oxo-1,6-dihydropyridazin-3-yl)oxy)phenyl)-1,2,4-triazine-3,5(2H,4H)-dione] | 50 to 250 | < 50 | < 100 | 50 to 75 | 
10 | Cc1cc(-n2ncc(=O)[nH]c2=O)cc(C)c1Cc1ccc2[nH]cc(C(C)C)c2n1 [Compound 54, 2-[4-[(3-isopropyl-1H-pyrrolo[3,2-b]pyridine-5-yl)methyl]-3,5-dimethyl-phenyl]-1,2,4-triazine-3,5-dione] | < 50 | 50 to 75 | < 100 | > 75 | 
11 | Nc1nn(-c2cc(Cl)c(Oc3cc(C45CCC(C4)C5)c(=O)[nH]n3)c(Cl)c2)c(=O)[nH]c1=O [Compound 101] | 50 to 250 | < 50 | < 100 | < 50 | 
12 | Nc1nn(-c2cc(Cl)c(Oc3cc(C4CC5(CCC5)C4)c(=O)[nH]n3)c(Cl)c2)c(=O)[nH]c1=O [Compound 94] | 50 to 250 | < 50 | 100 to 1000 | 50 to 75 | 
13 | Cc1cc(-n2nc(N)c(=O)[nH]c2=O)cc(C)c1Cc1ccc2[nH]cc(C(C)C)c2n1 [Compound 55, 6-amino-2-[4-[(3-isopropyl-1H-pyrrolo[3,2-b]pyridin-5-yl)methyl]-3,5-dimethyl-phenyl]-1,2,4-triazine-3,5-dione] | < 50 | 50 to 75 | < 100 | > 75 | 
14 | Cc1cc(-n2nc(C#N)c(=O)[nH]c2=O)cc(C)c1Cc1ccc2[nH]cc(C(C)C)c2n1 [Compound 31, 2-[4-[(3-isopropyl-1H-pyrrolo[3,2-b]pyridin-5-yl)methyl]-3,5-dimethyl-phenyl]-3,5-dioxo-1,2,4-triazine-6-carbonitrile] | < 50 | 50 to 75 | 100 to 1000 | > 75 | 
15 | CC(c1cc(Oc2c(Cl)cc(-n3nc(N)c(=O)[nH]c3=O)cc2Cl)n[nH]c1=O)C1CC(F)(F)C1 (single isomer, unassigned) [Compound 61-A, 6-amino-2-[3,5-dichloro-4-([5-[1-(3,3-difluorocyclobutyl)ethyl]-6-oxo-1H-pyridazin-3-yl]oxy)phenyl]-4H-1,2,4-tri-azine-3,5-dione] | < 50 | 50 to 75 | < 100 |  | B (Emax≥50%, and <75%)

— US12180192B2, “Modulators of THR-β and methods of use thereof” (ALIGOS THERAPEUTICS, INC., priority 2019, dated 2024)
